Experiments:
brains of R15a −/− mice = assay: Monitoring translation rates in vivo, brains of R15a −/− mice; design: species or system mouse; settings: 40 mg/kg
Procedure: (§1) 3 months old treatment- and test-naive C57BL/6J males were treated as indicated. 30 min before the end of treatment mice were injected intraperitoneally with 0.75 mCi/kg radioactive label – 75% ^35S-methionine + 25% ^35S-cystine (Hartmann Analytic). At the end of treatment mice were culled by cervical dislocation, brains were extracted, fresh-frozen in liquid nitrogen and kept at −80°C until use. Tissue was homogenized and lysed in Laemmli Buffer (1 mL for 0.5 mg tissue). Lysates were boiled at 95°C for 5 min, sonicated and resolved on Bolt SDS-PAGE 4%–12% Bis-Tris gels (ThermoFisher Scientific). Gels were then stained with InstantBlue (Expedeon) and after the gels had been imaged they were transferred to a 20% ethanol, 7% acetic acid, 4% glycerol solution for 10 min. This was to prevent the gels from cracking while drying. The gels were transferred to filter paper and dried using a gel dryer. The gels were then exposed to a Storage Phosphor Screen (GE Healthcare) and analyzed by phosphorimaging using a Typhoon Imager Scanner (GE Healthcare).

HD^82Q mice = assay: Treatment of HD^82Q (N171-82Q) mice, model of Huntington's disease; type: in vivo, mouse
Procedure: To produce an experimental group, HD^82Q transgenic males were crossed with C3H/B6 F1 wild-type females. 4 weeks old treatment- and test-naive transgenic mice and their wild-type littermate controls were randomized in different groups and treated with Raphin1 for the indicated time. Only males HD^82Q were used. Mice weight was collected weekly or bi-weekly.
Mice were culled by cervical dislocation, a part of cortex was extracted, fresh-frozen in liquid nitrogen and kept at −80°C until use. Tissue was homogenized and lysed in Laemmli Buffer (1 mL for 0.5 mg tissue). Lysates were boiled at 95°C for 5 min, sonicated and resolved on Bolt SDS-PAGE 4%–12% Bis-Tris gels (ThermoFisher Scientific). Proteins were transferred to the nitrocellulose membrane (Bio-Rad). Membrane was blocked in 5% skimmed milk for 30 min and then probed with primary antibodies followed by incubation with the appropriate horseradish peroxidase-conjugated secondary antibodies (Promega). Proteins were visualized using ECL Prime (GE Healthcare) and imaged in the Chemi-Smart 5000 (Vilber-Lourmat, France). SDS-resistant huntingtin assemblies were quantified using ImageJ (NIH, USA). The huntingtin assemblies were analyzed using the huntingtin 2B4 antibody (Euromedex (#HU-2B4), 1:1,000).
Mice were culled by cervical dislocation, a brain was fresh frozen in the O.C.T. compound (VWR International) and sectioned (14 μm) using Cryostat (Leica CM3050 S). […]
For quantification, motor cortex was imaged using a Nikon TiE automated fluorescence microscope under the control of NIS Elements software (Nikon UK). Images were taken using a 40X 0.95 NA lens, fluorescence filter sets matched to Hoechst 33342 and Alexa 488 and an Andor Neo sCMOS camera. […] Images were analyzed using the ‘general analysis’ tool in NIS Elements. […] The total number of nuclei per field and the total number of inclusions inside nuclei per field were counted in each filed. […] To check for systematic bias in our analysis due to variations in sample processing we also measured the average fluorescence intensity across the whole field. […]

R15B = biological target: T1, R15B (Homo sapiens, UniProt Q5SWA1); assay: R15B levels on immunoblots of HeLa cell lysates; type: cell-based; settings: HeLa cells, Raphin1 10 μM
T1 construct: endogenous in cells; host or cells: HeLa
T1 sequence (Q5SWA1 1-713): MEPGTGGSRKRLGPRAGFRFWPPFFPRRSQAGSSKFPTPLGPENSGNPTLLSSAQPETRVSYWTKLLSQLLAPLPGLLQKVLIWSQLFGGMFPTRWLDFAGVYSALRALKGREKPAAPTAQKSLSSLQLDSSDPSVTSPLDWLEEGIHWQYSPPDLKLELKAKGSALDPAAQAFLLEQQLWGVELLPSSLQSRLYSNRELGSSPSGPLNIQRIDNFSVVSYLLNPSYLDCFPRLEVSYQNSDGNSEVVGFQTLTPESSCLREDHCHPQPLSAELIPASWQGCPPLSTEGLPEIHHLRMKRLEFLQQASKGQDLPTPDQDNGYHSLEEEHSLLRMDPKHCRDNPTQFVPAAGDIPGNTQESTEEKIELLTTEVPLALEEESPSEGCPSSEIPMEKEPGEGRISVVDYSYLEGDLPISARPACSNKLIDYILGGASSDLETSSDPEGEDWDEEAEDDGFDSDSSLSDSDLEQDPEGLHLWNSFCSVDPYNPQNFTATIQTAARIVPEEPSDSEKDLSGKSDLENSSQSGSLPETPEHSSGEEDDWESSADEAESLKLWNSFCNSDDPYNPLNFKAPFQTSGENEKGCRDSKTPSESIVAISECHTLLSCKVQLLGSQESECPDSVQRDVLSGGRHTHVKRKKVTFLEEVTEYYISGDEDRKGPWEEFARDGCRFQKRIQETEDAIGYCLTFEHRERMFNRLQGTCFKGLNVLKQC
Procedure: HeLa or MEF cells (90,000 cells/mL) were plated in 12-well plates (1 mL/well). The following day cells were treated as indicated; the medium was removed, fresh medium containing compound added and incubated at 37°C for the times indicated. The time course was performed in reverse order to facilitate collecting all samples at the same time. At the end of treatment cells were washed two times with ice-cold PBS and lysed in 150 μL Laemmli Buffer. […] Proteins were transferred to the nitrocellulose membrane using the iBlot 2 system (ThermoFisher Scientific). Membrane was blocked in 5% skimmed milk for 30 min and then probed with primary antibodies followed by incubation with the appropriate horseradish peroxidase-conjugated secondary antibodies (Promega). Proteins were visualized using ECL Prime (GE Healthcare) and imaged in the Chemi-Smart 5000 (Vilber-Lourmat, France) or ChemiDoc Touch (BioRad). Bands were quantified using ImageJ (NIH, USA).

brains of wild-type mice = assay: Monitoring translation rates in vivo, brains of wild-type mice; design: species or system mouse; settings: 40 mg/kg
Procedure: as §1

[1] = HD^82Q mice, 2 mg/kg daily from 4 weeks of age, 2-month-old

[H]/N=C(\N)NN=Cc1cccc(Cl)c1Cl [Raphin1, (E)-2-(2,3-dichlorobenzylidene)hydrazine-1-carboximidamide]
Translation recovery in the brains (in words) (brains of R15a −/− mice): recovery was reduced | Weight of HD^82Q mice (HD^82Q mice; 2 mg/kg once a day by oral gavage from 4 to ∼10 weeks of age): improved | Nuclear huntingtin inclusions in the cortex (HD^82Q mice; [1]): decreased | SDS-insoluble huntingtin assemblies in cortex (HD^82Q mice; [1]): decreased | R15B levels (R15B): significantly decreased | Time of translation recovery after administration (brains of wild-type mice; wild-type brains): ~6 h | Protein synthesis in the brains (in words) (brains of wild-type mice; wild-type mice): transiently reduced

Source: article PMC6108835, “Target-Based Discovery of an Inhibitor of the Regulatory Phosphatase PPP1R15B” (Cell, 2018)
